Test results published in US4073913A, “N^2 -arylsulfonyl-L-argininamides and the pharmaceutically acceptable salts thereof” (Mitsubishi Chemical Industries Limited, priority 1974, dated 1978).
Non-standard residues stand in square brackets, D forms with d. Residues, ends and D or L forms follow the SMILES beside them. ξ: configuration not given here. *: point of attachment. Dansyl = CN(C)c1cccc2c(S(=O)(=O)*)cccc12; ξPip = O=C(O)C1CCCCN1

Molecular target: T1, thrombin (Bos taurus, UniProt P00735)
T1 construct: clotting of bovine fibrinogen
Experiment: fibrinogen coagulation time (concentration required to prolong the coagulation time by a factor of two)
Assay type: biochemical
Conditions: bovine fibrinogen, thrombin 5 units/ml, borate saline buffer pH 7.4, 25° C; control 50-55 seconds prolonged to 100-110 seconds
Protocol: The measurement of the fibrinogen coagulation time was conducted as follows:
Immediately after mixing, the reaction mixture was transferred from the ice bath to a bath maintained at 25° C. Coagulation times were taken as the period between the time of transference to the 25° C bath and the time of the first appearance of fibrin threads. […] The term "concentration required to prolong the coagulation time by a factor of two" is the concentration of an active ingredient required to prolong the normal coagulation time 50-55 seconds to 100-110 seconds.

IC (2-fold clotting time) [µM]	SMILES
8	CCCN(CC(=O)O)C(=O)[C@H](CCCNC(=N)N)NS(=O)(=O)c1ccc2cc(OC)c(OC)cc2c1 [compound 1]
6.5	COc1cc2ccc(S(=O)(=O)N[C@@H](CCCNC(=N)N)C(=O)N(CC(=O)O)CC(C)OC)cc2cc1OC (stereo partly shown) [compound 212]
5	COCCCN(CC(=O)O)C(=O)[C@H](CCCNC(=N)N)NS(=O)(=O)c1ccc2cc(OC)c(OC)cc2c1 [compound 19]
2.5	COc1cc2ccc(S(=O)(=O)N[C@@H](CCCNC(=N)N)C(=O)N(Cc3ccccc3)C(C)C(=O)O)cc2cc1OC (stereo partly shown) [compound 120]
4	CCCCN(CC(=O)O)C(=O)[C@H](CCCNC(=N)N)NS(=O)(=O)c1cccc2c(N(C)C)cccc12 [compound 153]

SMILES	IC (2-fold clotting time) [µM]
COc1cc2ccc(S(=O)(=O)N[C@@H](CCCNC(=N)N)C(=O)N3Cc4ccccc4CC3C(=O)O)cc2cc1OC (stereo partly shown) [compound 194]	2

Tested on: not listed separately
Experiment: acute toxicity (LD50), intraperitoneal administration in mice
Assay type: in vivo, mice (male, 20 g)
Conditions: comparison with N^2 -dansyl-L-argininamides; route and species not restated

SMILES	LD50 values (comparison dansyl compounds) [milligrams per kilogram]
CCCCN(C)C(=O)[C@H](CCCNC(=N)N)NS(=O)(=O)c1cccc2c(N(C)C)cccc12 [N^2 -dansyl-N-methyl-N-butyl-L-argininamide, reference compound]	70
CCCCNC(=O)[C@H](CCCNC(=N)N)NS(=O)(=O)c1cccc2c(N(C)C)cccc12 [N^2 -dansyl-N-butyl-L-argininamide, reference compound]	75

Same assay, conditions: intraperitoneal, mice (male, 20 g)

SMILES	LD50
COc1cc2ccc(S(=O)(=O)N[C@@H](CCCNC(=N)N)C(=O)N(CC(=O)O)C3CCCCC3)cc2cc1OC [N^2-(6,7-dimethoxy-2-naphthylsulfonyl)-L-arginyl-N-cyclohexylglycine]	> 1,500 mg/kg

Same assay, conditions: mouse, in vivo, ip, intraperitoneal, mice (male, 20 g); read-out: LD50

SMILES	LD50 [mg/kg]
COCCN(CC(=O)O)C(=O)[C@H](CCCNC(=N)N)NS(=O)(=O)c1ccc2cc(OC)c(OC)cc2c1 [N^2-(6,7-dimethoxy-2-naphthylsulfonyl)-L-arginyl-N-(2-methoxyethyl)glycine]	1900 to 2400
COc1cc2ccc(S(=O)(=O)N[C@@H](CCCNC(=N)N)C(=O)N(CC(=O)O)C3CCCCC3)cc2cc1OC [N^2-(6,7-dimethoxy-2-naphthylsulfonyl)-L-arginyl-N-cyclohexylglycine]	1500
COc1cc2ccc(S(=O)(=O)N[C@@H](CCCNC(=N)N)C(=O)N3Cc4ccccc4CC3C(=O)O)cc2cc1OC (stereo partly drawn) [2-N^2-(6,7-dimethoxy-2-naphthylsulfonyl)-L-arginyl!-1,2,3,4-tetrahydroisoquinoline-3-carboxylic acid]	> 1000
Cc1ccc2ccc(S(=O)(=O)N[C@@H](CCCNC(=N)N)C(=O)N(CC(=O)O)CC3CCCO3)cc2c1 (stereo partly drawn) [N^2-(7-methyl-2-naphthylsulfonyl)-L-arginyl-N-tetrahydrofurfurylglycine]	600
COc1cc2ccc(S(=O)(=O)N[C@@H](CCCNC(=N)N)C(=O)N(CC(=O)O)CC3CCCO3)cc2cc1OC (stereo partly drawn) [N^2-(6,7-dimethoxy-2-naphthylsulfonyl)-L-arginyl-N-tetrahydrofurfurylglycine]	620
CN(C)c1cccc2c(S(=O)(=O)N[C@@H](CCCNC(=N)N)C(=O)N3CCCCC3C(=O)O)cccc12 (stereo partly drawn) [1-N^2-(5-dimethylamino-1-naphthylsulfonyl)-L-arginyl!-2-piperidinecarboxylic acid] (Dansyl-Arg-[ξPip]-OH)	700 to 1000
CCCCN(C(=O)[C@H](CCCNC(=N)N)NS(=O)(=O)c1ccc2cc(OC)c(OC)cc2c1)[C@@H](C)C(=O)O [N^2-(6,7-dimethoxy-2-naphthylsulfonyl)-L-arginyl-N-butylalanine]	> 1500
CCOCCN(CCC(=O)O)C(=O)[C@H](CCCNC(=N)N)NS(=O)(=O)c1ccc2cc(OC)c(OC)cc2c1 [N^2-(6,7-dimethoxy-2-naphthylsulfonyl)-L-arginyl-N-(2-ethoxyethyl)-β-alanine]	660 to 1000
COCCN(CC(=O)O)C(=O)[C@H](CCCNC(=N)N)NS(=O)(=O)c1ccc2ccc(OC)cc2c1 [N^2-(7-methoxy-2-naphthylsulfonyl)-L-arginyl-N-(2-methoxyethyl)glycine]	2000
COc1ccc2cc(S(=O)(=O)N[C@@H](CCCNC(=N)N)C(=O)N(CC3CCCCC3)[C@@H](C)C(=O)O)cc(OC)c2c1 [N^2-(4,6-dimethoxy-2-naphthylsulfonyl)-L-arginyl-N-cyclohexylmethylalanine]	> 1500
CC1CCN(C(=O)[C@H](CCCNC(=N)N)NS(=O)(=O)c2cccc3ccccc23)C(C(=O)O)C1 (stereo partly drawn) [1-N^2-(1-naphthylsulfonyl)-L-arginyl!-4-methyl-2-piperidinecarboxylic acid]	700 to 1000
COc1ccc2ccc(S(=O)(=O)N[C@@H](CCCNC(=N)N)C(=O)N3CCOCC3C(=O)O)cc2c1 (stereo partly drawn) [4-N^2-(7-methoxy-2-naphthylsulfonyl)-L-arginyl!-3-morpholinecarboxylic acid]	> 1000
CCSCCN(CC(=O)O)C(=O)[C@H](CCCNC(=N)N)NS(=O)(=O)c1ccc2cc(OC)c(OC)cc2c1 [N^2-(6,7-dimethoxy-2-naphthylsulfonyl)-L-arginyl-N-(2-ethylthioethyl)glycine]	> 1000
COc1cc2ccc(S(=O)(=O)N[C@@H](CCCNC(=N)N)C(=O)N(CC(=O)O)CC3CCCCC3)cc2cc1OC [N^2-(6,7-dimethoxy-2-naphthylsulfonyl)-L-arginyl-N-cyclohexylmethylglycine]	> 1500
COc1cc2ccc(S(=O)(=O)N[C@@H](CCCNC(=N)N)C(=O)N3Cc4ccccc4C3C(=O)O)cc2cc1OC (stereo partly drawn) [2-N^2-(6,7-dimethoxy-2-naphthylsulfonyl)-L-arginyl!-1-isoindolinecarboxylic acid]	> 1000
COCCN(CC(=O)O)C(=O)[C@H](CCCNC(=N)N)NS(=O)(=O)c1cc(OC)c2cc(OC)ccc2c1 [N^2-(4,6-dimethoxy-2-naphthylsulfonyl)-L-arginyl-N-(2-methoxyethyl)glycine]	660 to 1000
